Our source for the IC50 values is patent US20240246967A1, “AXL COMPOUNDS” (ARCUS BIOSCIENCES, INC., priority 2021, published 2024).

The structures appear in SMILES notation.

For this assay, the target named is T1, human TYRO3 (Homo sapiens, UniProt Q06418).
T1 construct: purchased Invitrogen
T1 sequence (Q06418 41-890): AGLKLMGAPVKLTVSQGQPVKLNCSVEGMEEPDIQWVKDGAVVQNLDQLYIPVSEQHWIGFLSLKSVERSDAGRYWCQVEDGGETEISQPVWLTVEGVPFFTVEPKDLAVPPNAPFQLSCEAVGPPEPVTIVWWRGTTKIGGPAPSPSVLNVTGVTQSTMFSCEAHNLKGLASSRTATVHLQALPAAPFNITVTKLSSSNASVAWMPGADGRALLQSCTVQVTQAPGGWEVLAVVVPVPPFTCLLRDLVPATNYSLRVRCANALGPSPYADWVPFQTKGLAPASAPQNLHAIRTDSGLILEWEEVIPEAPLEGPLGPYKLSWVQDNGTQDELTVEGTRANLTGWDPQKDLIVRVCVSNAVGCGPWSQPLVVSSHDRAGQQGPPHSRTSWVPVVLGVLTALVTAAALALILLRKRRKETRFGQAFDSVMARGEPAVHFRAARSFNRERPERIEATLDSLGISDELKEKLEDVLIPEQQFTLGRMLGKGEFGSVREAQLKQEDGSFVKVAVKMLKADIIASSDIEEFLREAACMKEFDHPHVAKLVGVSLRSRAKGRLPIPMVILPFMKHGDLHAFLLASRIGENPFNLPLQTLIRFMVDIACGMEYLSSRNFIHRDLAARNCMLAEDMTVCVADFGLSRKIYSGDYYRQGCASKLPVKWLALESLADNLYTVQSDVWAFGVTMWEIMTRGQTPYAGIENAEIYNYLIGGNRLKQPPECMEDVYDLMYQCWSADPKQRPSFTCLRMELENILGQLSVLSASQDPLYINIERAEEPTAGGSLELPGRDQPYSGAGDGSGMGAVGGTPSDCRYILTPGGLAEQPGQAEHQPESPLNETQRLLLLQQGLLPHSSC
The assay can be described thus: HTRF KinEASE-TK biochemical potency assay, TYRO3. Particulars: 1 nM TYRO3, 700 μM ATP, 800 nM TK Substrate-biotin. The essentials: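 HTRF 665/620 nm read-out after streptavidin-XL665/anti-phosphotyrosine cryptate detection (1 h RT). Final reaction: 5 nM AXL or 1 nM TYRO3/MER, 800 nM TK substrate-biotin, 700 μM ATP, pH 7.4 HEPES buffer, 1% DMSO, 2 h RT, after 1 h enzyme–compound preincubation.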
For orientation: TR-FRET usually uses a lanthanide donor and a delayed reading to cut background.
In turn, `CC(C)NC(=O)c1ccc(-c2n[nH]c3ncc(-c4ccc5c(c4)CCC(C)(N4CCC[C@H]4C)CC5)cc23)cc1` (stereo partly drawn) [Example 70, 4-(5-{7-Methyl-7-[(2R)-2-methylpyrrolidin-1-yl]-6,7,8,9-tetrahydro-5H-benzo[7]annulen-2-yl}-1H-pyrazolo[3,4-b]pyridin-3-yl)-N-(propan-2-yl)benzamide] came in with a concentration for half-maximal inhibition (IC50) of 100 to 1000 nM.

Consider `COCCNC(=O)c1ccc(-c2n[nH]c3ncc(-c4ccc5c(c4)CCC(C)(N4CCC[C@H]4C)CC5)cc23)cc1` (stereo partly drawn) [Example 72, N-(2-Methoxyethyl)-4-(5-{7-methyl-7-[(2R)-2-methylpyrrolidin-1-yl]-6,7,8,9-tetrahydro-5H-benzo[7]annulen-2-yl}-1H-pyrazolo[3,4-b]pyridin-3-yl)benzamide], for which the IC50 lay in the range of 100 to 1000 nM.

For `CCC1(N2CCC[C@H]2C)CCc2ccc(-c3cnc4[nH]nc(-c5ccc(C(N)=O)c(Cl)c5)c4c3)cc2CC1` (stereo partly drawn) [Example 73, 2-Chloro-4-(5-{7-ethyl-7-[(2R)-2-methylpyrrolidin-1-yl]-6,7,8,9-tetrahydro-5H-benzo[7]annulen-2-yl}-1H-pyrazolo[3,4-b]pyridin-3-yl)benzamide], the concentration for half-maximal inhibition (IC50) is less than 100 nM.

Compound `CCC1(N2CCC[C@@H]2CO)CCc2ccc(-c3cnc4[nH]nc(-c5ccc(C(N)=O)c(Cl)c5)c4c3)cc2CC1` (stereo partly drawn) [Example 74, 2-Chloro-4-(5-{7-ethyl-7-[(2R)-2-(hydroxymethyl)pyrrolidin-1-yl]-6,7,8,9-tetrahydro-5H-benzo[7]annulen-2-yl}-1H-pyrazolo[3,4-b]pyridin-3-yl)benzamide] came in with an IC50 of less than 100 nM.

In turn, `CCC1(N2CCC[C@H]2CO)CCc2ccc(-c3cnc4[nH]nc(-c5ccc(C(N)=O)c(Cl)c5)c4c3)cc2CC1` (stereo partly drawn) [Example 75, 2-Chloro-4-(5-{7-ethyl-7-[(2S)-2-(hydroxymethyl)pyrrolidin-1-yl]-6,7,8,9-tetrahydro-5H-benzo[7]annulen-2-yl}-1H-pyrazolo[3,4-b]pyridin-3-yl)benzamide] registered an IC50 of less than 100 nM.

The compound `C[C@@H]1CCCN1C1(C)CCc2ccc(-c3cnc4[nH]nc(-c5ccc(C(=O)N6CCC6)cc5)c4c3)cc2CC1` (stereo partly drawn) [Example 76, (2R)-1-(2-{3-[4-(Azetidine-1-carbonyl)phenyl]-1H-pyrazolo[3,4-b]pyridin-5-yl}-7-methyl-6,7,8,9-tetrahydro-5H-benzo[7]annulen-7-yl)-2-methylpyrrolidine] returned an IC50 of 100 to 1000 nM.

Compound `NC(=O)c1ccc(-c2n[nH]c3ncc(-c4ccc5c(c4)CCC(N4CCCC4)CC5)cc23)cc1Cl` (stereo not shown) [Example 77, 2-Chloro-4-(5-(7-(pyrrolidin-1-yl)-6,7,8,9-tetrahydro-5H-benzo[7]annulen-2-yl)-1H-pyrazolo[3,4-b]pyridin-3-yl)benzamide] had an IC50 of less than 100 nM.

For `NC(=O)c1ccc(-c2n[nH]c3ncc(-c4ccc5c(c4)CCC(N4CCCC4)CC5)cc23)cc1` (stereo not shown) [Example 78, 4-(5-(7-(Pyrrolidin-1-yl)-6,7,8,9-tetrahydro-5H-benzo[7]annulen-2-yl)-1H-pyrazolo[3,4-b]pyridin-3-yl)benzamide], the IC50 was less than 100 nM.

Compound `Cc1cc(-c2n[nH]c3ncc(-c4ccc5c(c4)CCC(N4CCCC4)CC5)cc23)cc(F)c1C(N)=O` (stereo not shown) [Example 79, 2-Fluoro-6-methyl-4-(5-(7-(pyrrolidin-1-yl)-6,7,8,9-tetrahydro-5H-benzo[7]annulen-2-yl)-1H-pyrazolo[3,4-b]pyridin-3-yl)benzamide] had an IC50 of less than 100 nM.

`NC(=O)c1ccc(-c2n[nH]c3ncc(-c4ccc5c(c4)CCC(N4CCCC4)CC5)cc23)cc1C(F)(F)F` (stereo not shown) [Example 80, 4-(5-(7-(Pyrrolidin-1-yl)-6,7,8,9-tetrahydro-5H-benzo[7]annulen-2-yl)-1H-pyrazolo[3,4-b]pyridin-3-yl)-2-(trifluoromethyl)benzamide] gave an IC50 of less than 100 nM.

Regarding `NC(=O)c1ccc(-c2n[nH]c3ncc(-c4ccc5c(c4)CCC(N4CCCC4)CC5)cc23)cc1F` (stereo not shown) [Example 81, 2-Fluoro-4-(5-(7-(pyrrolidin-1-yl)-6,7,8,9-tetrahydro-5H-benzo[7]annulen-2-yl)-1H-pyrazolo[3,4-b]pyridin-3-yl)benzamide], the IC50 is less than 100 nM.

`O=C(c1ccc(-c2n[nH]c3ncc(-c4ccc5c(c4)CC[C@@H](N4CCCC4)CC5)cc23)cc1Cl)N1CCNCC1` [Example 82, (S)-(2-Chloro-4-(5-(7-(pyrrolidin-1-yl)-6,7,8,9-tetrahydro-5H-benzo[7]annulen-2-yl)-1H-pyrazolo[3,4-b]pyridin-3-yl)phenyl)(piperazin-1-yl)methanone] had an IC50 of less than 100 nM.

On to `Cc1cc(-c2n[nH]c3ncc(-c4ccc5c(c4)CC[C@@H](N4CCCC4)CC5)cc23)cc(F)c1C(N)=O` [Example 83, (S)-2-Fluoro-6-methyl-4-(5-(7-(pyrrolidin-1-yl)-6,7,8,9-tetrahydro-5H-benzo[7]annulen-2-yl)-1H-pyrazolo[3,4-b]pyridin-3-yl)benzamide], for which the IC50 was less than 100 nM.

In the case of `NC(=O)c1ccc(-c2n[nH]c3ncc(-c4ccc5c(c4)CC[C@@H](N4CCCC4)CC5)cc23)cc1Cl` [Example 84, (S)-2-Chloro-4-(5-(7-(pyrrolidin-1-yl)-6,7,8,9-tetrahydro-5H-benzo[7]annulen-2-yl)-1H-pyrazolo[3,4-b]pyridin-3-yl)benzamide], the 50% inhibitory concentration (IC50) is less than 100 nM.

For `O=C(c1ccc(-c2n[nH]c3ncc(-c4ccc5c(c4)CC[C@@H](N4CCCC4)CC5)cc23)cc1Cl)N1CCC(O)CC1` [Example 85, (S)-(2-Chloro-4-(5-(7-(pyrrolidin-1-yl)-6,7,8,9-tetrahydro-5H-benzo[7]annulen-2-yl)-1H-pyrazolo[3,4-b]pyridin-3-yl)phenyl)(4-hydroxypiperidin-1-yl)methanone], the IC50 is less than 100 nM.

As to `COc1cc(-c2n[nH]c3ncc(-c4ccc5c(c4)CCC(C)(N4CCC[C@H]4C)CC5)cc23)ccc1S(N)(=O)=O` (stereo partly drawn) [Example 87, 2-Methoxy-4-(5-(7-methyl-7-((R)-2-methylpyrrolidin-1-yl)-6,7,8,9-tetrahydro-5H-benzo[7]annulen-2-yl)-1H-pyrazolo[3,4-b]pyridin-3-yl)benzenesulfonamide], the IC50 was in the range of 100 to 1000 nM.

`C[C@@H]1CCCN1C1(C)CCc2ccc(-c3cnc4[nH]nc(-c5ccc(C(=O)NC6CCOCC6)cc5)c4c3)cc2CC1` (stereo partly drawn) [Example 88, 4-(5-(7-Methyl-7-((R)-2-methylpyrrolidin-1-yl)-6,7,8,9-tetrahydro-5H-benzo[7]annulen-2-yl)-1H-pyrazolo[3,4-b]pyridin-3-yl)-N-(tetrahydro-2H-pyran-4-yl)benzamide]: the IC50 is 100 to 1000 nM.

On to `COC1CCN(C(=O)c2ccc(-c3n[nH]c4ncc(-c5ccc6c(c5)CCC(C)(N5CCC[C@H]5C)CC6)cc34)cc2)CC1` (stereo partly drawn) [Example 89, (4-Methoxypiperidin-1-yl)(4-(5-(7-methyl-7-((R)-2-methylpyrrolidin-1-yl)-6,7,8,9-tetrahydro-5H-benzo[7]annulen-2-yl)-1H-pyrazolo[3,4-b]pyridin-3-yl)phenyl)methanone], for which the 50% inhibitory concentration (IC50) lay in the range of 100 to 1000 nM.

`Cc1cc2c(cc1-c1cnc3[nH]nc(-c4ccc(C(C)(C)O)c(Cl)c4)c3c1)CCC(N1CCC[C@H]1C)CC2` (stereo partly drawn) [Example 90, 2-[2-Chloro-4-(5-{3-methyl-7-[(2R)-2-methylpyrrolidin-1-yl]-6,7,8,9-tetrahydro-5H-benzo[7]annulen-2-yl}-1H-pyrazolo[3,4-b]pyridin-3-yl)phenyl]propan-2-ol] had an IC50 of more than 1000 nM.

In general, IC50 refers to the midpoint of a concentration-inhibition curve. Low values mean higher potency, high ones lower potency.
